{
  "source": "patent US11666634B2",
  "about": "“Methods and compositions for management of gastrointestinal disorders” (THE BOARD OF REGENTS OF THE UNIVERSITY OF TEXAS SYSTEM, priority 2019, dated 2023)",
  "origin": "cited, not measured here",
  "data": [
    {"smiles": "CC[C@H](C)[C@H](NC(=O)[C@@H]1CCCN1C(=O)CNC(=O)[C@H](Cc1ccccc1)NC(=O)[C@H](CC(N)=O)NC(=O)[C@H](CC(N)=O)NC(=O)[C@H](CO)NC(=O)[C@H](CO)NC(=O)[C@H](Cc1c[nH]cn1)NC(=O)[C@@H](NC(=O)[C@H](CC(C)C)NC(=O)[C@H](Cc1ccccc1)NC(=O)[C@H](CC(N)=O)NC(=O)[C@H](C)NC(=O)[C@H](CC(C)C)NC(=O)[C@H](CCCNC(=N)N)NC(=O)[C@H](CCC(N)=O)NC(=O)[C@@H](NC(=O)[C@H](C)NC(=O)[C@@H]1CSSC[C@H](NC(=O)[C@@H](N)CCCCN)C(=O)N[C@@H](CC(N)=O)C(=O)N[C@@H]([C@@H](C)O)C(=O)N[C@@H](C)C(=O)N[C@@H]([C@@H](C)O)C(=O)N1)[C@@H](C)O)C(C)C)C(=O)N[C@@H](CC(C)C)C(=O)N1CCC[C@H]1C(=O)N1CCC[C@H]1C(=O)N[C@H](C(=O)N[C@@H](CC(N)=O)C(=O)N[C@H](C(=O)NCC(=O)N[C@@H](CO)C(=O)N[C@@H](CC(N)=O)C(=O)N[C@H](C(=O)N[C@@H](Cc1ccc(O)cc1)C(N)=O)[C@@H](C)O)C(C)C)[C@@H](C)O", "note": "[Pramlintide, pramlintide]", "values": [
      {"measurement": "gastric emptying half time", "setting": "gastric emptying of a liquid, delayed from a half time of 30 minutes without pramlintide", "value": 110, "unit": "min"},
      {"measurement": "rate of gastric emptying", "setting": "result in words", "value": "significantly decreased"}
    ]}
  ]
}
